In ChEMBL document CHEMBL4813914, “Tackling Antimicrobial Resistance with Small Molecules Targeting LsrK: Challenges and Opportunities” (J Med Chem, 2020):

Key:
[1] = Inhibition of Salmonella typhimurium LsrK expressed in Escherichia coli MET1158 incubated for 30 mins followed by DPD and ATP addition and measured after 15 mins by kinase-glo max luminescent assay; parameters: species or system Salmonella enterica subsp. enterica serovar Typhimurium
[2] = Inhibition of Salmonella typhimurium LsrK expressed in Escherichia coli MET1158 in presence of DPD by kinase-glo max luminescent assay; parameters: species or system Salmonella enterica subsp. enterica serovar Typhimurium
[3] = Inhibition of LsrK expressed in Escherichia coli JW5503 harboring plasmid pET-Plsrlux assessed as reduction in autoinducer2-mediated quorum sensing activation by luminescence method
[4] = Inhibition of LsrK expressed in Escherichia coli LW7 pLW11 harboring assessed as reduction in autoinducer2-mediated quorum sensing by measuring beta-galactosidase expression by luminescence method

| SMILES | IC50 [2] [µM] | IC50 [3] [µM] | other results |
| --- | --- | --- | --- |
| O=C(O)C1=CC(=C(c2ccc(O)c(C(=O)O)c2)c2ccc(O)c(C(=O)O)c2)C=CC1=O [AURINTRICARBOXYLIC ACID] |  |  | IC50 [1]: 1 µM |
| Cc1c(Cl)cccc1Nc1ccccc1C(=O)O [TOLFENAMIC ACID] | 70 |  |  |
| Cc1[nH]c(C(=O)N(Cc2ccccc2)c2nc3ccc(NC(=O)C(=O)O)cc3s2)c(Cl)c1Cl | 29 | 1 |  |
| O=C(O)c1ccccc1Nc1ccc(Cl)cc1 | 141 |  |  |
| O=C(Nc1ccc(C2=N[C@@H](C(=O)O)CO2)cc1)c1cc(Br)c(Br)[nH]1 | 78 | 17 |  |
| O=C(O)c1ccccc1Nc1cccc(Cl)c1 | 119 |  |  |
| O=C(O)C(=O)Nc1nc2ccc(NC(=O)c3cc(Br)c(Br)[nH]3)cc2s1 | 18 | 0.6 |  |
| O=C(O)c1ccc(Cl)cc1Nc1ccccc1 | 30 |  |  |
| COc1cc(C)c2c(c1C=O)Oc1c(c(C)c(O)c3c1C(O)OC3=O)OC2=O (stereo not given) [STICTIC ACID] |  |  | IC50 [1]: 3 µM |
| O=C(O)c1c(Cl)c(Cl)c(Cl)c(Cl)c1Nc1cc(Cl)c(Cl)c(Cl)c1Cl | 12 |  |  |
| O=C1C=CC(=C(c2ccc(O)cc2)c2ccc(O)cc2)C=C1 [AURIN] |  |  | IC50 [1]: 1 µM; IC50 [4]: 14 µM |
| COc1ccc(Nc2cc(C(F)(F)F)ccc2Cl)c(C(=O)O)c1 | 67 |  |  |
| O=C(O)c1ccc(O)c2ncccc12 | 292 |  |  |
| O=C(O)CC(=O)Nc1ccc2nc(N(Cc3ccccc3)C(=O)c3cc(Br)c(Br)[nH]3)sc2c1 | 15 | 0.4 |  |
| CC1=C(O)C(=O)C=C2C1=CC=C1[C@@]2(C)CC[C@@]2(C)[C@@H]3C[C@](C)(C(=O)O)CC[C@]3(C)CC[C@]12C [CELASTROL] |  |  | IC50 [1]: 3 µM |
| Cc1ccc(Cl)c(Nc2ccccc2C(=O)O)c1Cl [MECLOFENAMIC ACID] | 178 |  |  |
| O=C(O)C(=O)Nc1ccc2nc(N(Cc3ccccc3)C(=O)c3cc(Br)c(Br)[nH]3)sc2c1 | 18 | 10 |  |
| O=C(O)C(=O)N[C@H]1CCc2nc(NC(=O)c3cc(Br)c(Br)[nH]3)sc2C1 | 147 | 2 |  |
